What was measured:
[1] = system: Phaedon cochleariae; test: Phaedon cochleariae spray test; type: in vivo; settings: foliar, 168 h, after 7 days, larvae on Chinese cabbage leaf disks
Method: Phaedon Cochleariae—Spray Test
To produce a suitable preparation of active compound, 1 part by weight of active compound is mixed with the stated amount of solvents and is diluted with water, containing an emulsifier concentration of 1000 ppm, to the desired concentration. Further test concentrations are prepared by dilution with emulsifier containing water.
Chinese cabbage (Brassica pekinensis) leaf disks are sprayed with a preparation of the active ingredient of the desired concentration. Once dry, the leaf disks are infested with mustard beetle larvae (Phaedon cochleariae).
After 7 days mortality in % is determined. 100% means all beetle larvae have been killed and 0% means none of the beetle larvae have been killed.

[2] = system: Blattella germanica strain PAULINIA; test: whole plant or invertebrate; type: in vivo; settings: read-out: efficacy (mortality)
Method: Blattella Germanica Test (BLTTGE Surface Treatment & Contact Assay)
Solvent: Aceton+2000 ppm rapeseed oil methyl ester (RME)
In order to produce a sufficient, active ingredient containing solution it is necessary to solve the test compound in the solvent-mix (acetone at 2 mg/ml/RME 2000 ppm). This solution is pipetted onto a glazed tile and after evaporation of the acetone, adult animals of the species Blattella germanica strain PAULINIA are placed onto the dried surface. The exposure time is 30 minutes.
Mortality in percent (%) is determined 24 hours after contact of the insects to the treated surface. 100% mortality means that all tested insects are dead, whereas 0% means that no insect died.

`CC(c1ncnn1-c1ccc(C#N)cn1)N(CC1CC1)C(=O)c1cc(Cl)cc(C(F)(F)F)c1` (centres unmarked) [Example I-007] was tested, and the mortality at 500 g/ha [1] was 100% and the mortality at 20 mg/m2 [2] was 80 to 100%.

Source: US12171229B2, “Heteroaryl-triazole and heteroaryl-tetrazole compounds as pesticides” (BAYER AKTIENGESELLSCHAFT, priority 2018, dated 2024)
